Test results: publication PMC7315563, “Bioactive fluorenes. Part III: 2,7-dichloro-9H-fluorene-based thiazolidinone and azetidinone analogues as anticancer and antimicrobial against multidrug resistant strains agents” (BMC Chemistry, 2020)
≈ marks a conversion by molar mass, not a printed value.

How the values were obtained:
[1] = test system: MDA-MB-231 cells; experiment: FACS analysis, Annexin V and PI staining; format: cell-based, human; details: 24 h, 5g 500, 6c 105, 6d 170, 6k 130 µg/mL
Procedure: To uncover the mechanism of cell death for the compounds 5h, 6c, 6d and 6k on WI-38, A549, and MDA-MB-231 cells; Annexin v and propedium Iodide (PI) were used. In brief, WI-38, A549, MDA-MB-231 cells were cultured in 10 tissue culture dish with initial number 4 × 10^5 cell/Ml in RPMI growth media. […] After 24 h incubations, cells were washed and trypsinized and suspended in 50 μL 1X Annexin v binding buffer followed by adding 5 μL FITC Annexin V and incubated for 15 min at room temperature then 5 μL of PI were added to each tube. Finally, 400 μL of 1X Annexin v binding buffer were added to each tube and analyzed using Becton-Dickinson FACS Caliber.

[2] = test system: WI-38 cells; experiment: FACS analysis, Annexin V and PI staining; format: cell-based, human; details: 24 h, 5g 1000 µg/mL, 6c, 6d, 6k 500 µg/mL
Procedure: (§1) To uncover the mechanism of cell death for the compounds 5h, 6c, 6d and 6k on WI-38, A549, and MDA-MB-231 cells; Annexin v and propedium Iodide (PI) were used. In brief, WI-38, A549, MDA-MB-231 cells were cultured in 10 tissue culture dish with initial number 4 × 10^5 cell/Ml in RPMI growth media. In the following day, cells were treated with 6c, 6d and 6k as the following; (0.0, 500 μg/mL form each drug for WI-38 treatment, 0.0, 85, 117 and 200 μg/mL; respectively, for […] and 0.0, 250 from each for MDA-MB-231 cells treatment). After 24 h incubations, cells were washed and trypsinized and suspended in 50 μL 1X Annexin v binding buffer followed by adding 5 μL FITC Annexin V and incubated for 15 min at room temperature then 5 μL of PI were added to each tube. Finally, 400 μL of 1X Annexin v binding buffer were added to each tube and analyzed using Becton-Dickinson FACS Caliber.

[3] = test system: A549 cells; experiment: FACS analysis, Annexin V and PI staining; format: cell-based, human; details: 24 h, 5g 500, 6c 85, 6d 117, 6k 200 µg/mL
Procedure: as §1

[4] = test system: Staphylococcus aureus (S. aureus), multidrug resistant clinical isolate; experiment: agar well diffusion assay; format: cell-based; details: Staphylococcus aureus; S. aureus; 500 µg/mL of tested compound; 24 h
How it was run: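 Multidrug-resistant clinical isolates swabbed on Mueller–Hinton agar at about 1–5 × 10^5 CFU/mL; 0.5 cm wells received 50 μL compound at 500 μg/mL in 1% DMSO. Incubation 24 h, 37 °C for bacteria and C. albicans, 25 °C for Aspergillus; inhibition zone diameter measured in mm.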

[5] = test system: WI-38 human normal fibroblast cells; experiment: cell viability assay (MTT); format: cell-based; details: 24 h
How it was run: (§2)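 Cells were seeded at 5000/well in RPMI-1640 with 10% FBS. The next day they were exposed to fluorene derivatives at 0–500 µg/mL for 24 h. Viability was measured by MTT absorbance at 570 nm.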

[6] = test system: MDA-MB-231 human breast cancer cells; experiment: cell viability assay (MTT); format: cell-based; details: 24 h
How it was run: as §2

[7] = test system: A549 human lung cancer cells; experiment: cell viability assay (MTT); format: cell-based; details: 24 h
[8] = 31.25 µg/mL, read-out: Validity (%) for sample concentrations (µg/mL) 31.25
[9] = 62.50 µg/mL, read-out: Validity (%) for sample concentrations (µg/mL) 62.50
[10] = 125 µg/mL, read-out: Validity (%) for sample concentrations (µg/mL) 125
[11] = 250 µg/mL, read-out: Validity (%) for sample concentrations (µg/mL) 250
[12] = 500 µg/mL, read-out: Validity (%) for sample concentrations (µg/mL) 500
[13] = 1 µg/mL, read-out: Validity (%) for sample concentrations (µg/mL) 1
[14] = 10 µg/mL, read-out: Validity (%) for sample concentrations (µg/mL) 10

## O=C(O)c1ccc(C2SCC(=O)N2c2nc(-c3cc(Cl)cc4c3-c3ccc(Cl)cc3C4)cs2)cc1 (stereo not drawn) [5g, 4-(3-(4-(2,7-Dichloro-9H-fluoren-4-yl)thiazol-2-yl)-4-oxothiazolidin-2-yl)benzoic acid]
[1]
  apoptotic cell death (of total cell number): 1.34%
  necrotic cell death (of total cell number): 14.1%
[2]
  apoptotic cell death (of total cell number): 1.5%
  necrotic cell death (of total cell number): 15.8%
[3]
  apoptotic cell death (of total cell number): 1.25%
  necrotic cell death (of total cell number): 16.7%
[4]
  zone of inhibition at 500 µg/mL: 10 mm
[5]; [8]
  viability at 31.25 µg/mL: 96.7%
[5]; [9]
  viability at 62.5 µg/mL: 95.1%
[5]; [10]
  viability at 125 µg/mL: 90.2%
[5]; [11]
  viability at 250 µg/mL: 85.8%
[5]; [12]
  viability at 500 µg/mL: 79.2%
[5]
  IC50: > 500 µg/mL
[6]; [13]
  viability at 1 µg/mL: 92.6%
[6]; [14]
  viability at 10 µg/mL: 87.3%
[6]; [8]
  viability at 31.25 µg/mL: 80.9%
[6]; 62.5 µg/mL, read-out: Validity (%) for sample concentrations (µg/mL) 62.5
  viability at 62.5 µg/mL: 72.2%
[6]; [10]
  viability at 125 µg/mL: 67.7%
[6]; [11]
  viability at 250 µg/mL: 63.2%
[6]; [12]
  viability at 500 µg/mL: 58.5%
[6]
  IC50: > 500 µg/mL
[7]; [13]
  viability at 1 µg/mL: 93.7%
[7]; [14]
  viability at 10 µg/mL: 90.3%
[7]; [8]
  viability at 31.25 µg/mL: 88.7%
[7]; [9]
  viability at 62.5 µg/mL: 78.6%
[7]; [10]
  viability at 125 µg/mL: 84.1%
[7]; [11]
  viability at 250 µg/mL: 75.7%
[7]; [12]
  viability at 500 µg/mL: 56.3%
[7]; 1000 µg/mL, read-out: Validity (%) for sample concentrations (µg/mL) 1000
  viability at 1000 µg/mL: 16.8%
[7]
  IC50: 572 µg/mL (≈ 1060 µM)
